Values after ≈ are worked out from the molar mass of the structure shown.
Tests used:
[1] = test system: Bacillus subtilis; experiment: Antibacterial activity against Bacillus subtilis; assay type: functional
[2] = Photocytotoxicity activity against human HL60 cells measured after UV irradiation; assay type: functional; details: HL-60, light or radiation study
[3] = species on record: Mus musculus; experiment: Anticonvulsant activity in mouse assessed as protection against maximal electroshock-induced seizures; assay type: functional
[4] = molecular target: T1, Pro-cathepsin H (Homo sapiens) (UniProt P09668); experiment: Inhibition of Cathepsin H (unknown origin) at 0.25 x 10^-4 M
T1 sequence (whole entry): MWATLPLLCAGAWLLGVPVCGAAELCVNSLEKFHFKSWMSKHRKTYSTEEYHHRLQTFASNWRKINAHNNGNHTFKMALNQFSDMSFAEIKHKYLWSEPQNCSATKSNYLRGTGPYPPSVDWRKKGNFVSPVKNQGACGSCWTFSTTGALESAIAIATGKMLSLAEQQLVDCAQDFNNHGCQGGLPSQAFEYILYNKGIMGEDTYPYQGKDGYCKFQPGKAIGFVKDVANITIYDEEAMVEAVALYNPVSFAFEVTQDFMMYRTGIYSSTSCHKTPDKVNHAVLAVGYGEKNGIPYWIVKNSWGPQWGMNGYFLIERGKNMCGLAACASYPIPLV

[5] = test system: Staphylococcus aureus; experiment: Antibacterial activity against methicillin-resistant Staphylococcus aureus; assay type: functional
[6] = test system: Staphylococcus aureus; experiment: Antibacterial activity against Staphylococcus aureus assessed as zone of inhibition; assay type: functional
[7] = test system: Escherichia coli; experiment: Antibacterial activity against Escherichia coli assessed as zone of inhibition; assay type: functional
[8] = molecular target: Epidermal growth factor receptor (Homo sapiens, UniProt P00533); experiment: Inhibition of EGFR (unknown origin)
[9] = molecular target: Cathepsin B (Homo sapiens) (UniProt P07858); experiment: Inhibition of Cathepsin B (unknown origin) at 0.50 x 10^-4 M
[10] = molecular target: T2, Dihydrofolate reductase (Homo sapiens, UniProt P00374); experiment: Inhibition of DHFR (unknown origin)
T2 sequence (P00374 whole entry): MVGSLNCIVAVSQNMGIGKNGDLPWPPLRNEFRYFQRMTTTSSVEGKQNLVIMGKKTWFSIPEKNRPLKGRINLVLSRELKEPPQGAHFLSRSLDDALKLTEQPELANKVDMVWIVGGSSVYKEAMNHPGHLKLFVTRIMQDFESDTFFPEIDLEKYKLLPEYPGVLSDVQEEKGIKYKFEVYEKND

[11] = Cytotoxicity against human CNE2 cells by MTT assay; assay type: functional, cell-based; details: CNE-2
[12] = Cytotoxicity against human PC3 cells by MTT assay; assay type: functional, cell-based; details: PC-3
[13] = test system: SMMC-7721; experiment: Cytotoxicity against human SMMC7721 cells by MTT assay; assay type: functional, cell-based
[14] = test system: HUVEC; experiment: Inhibition of cell adhesion in HUVEC at 15 uM after 3 hrs at 37 degC; assay type: functional; details: Homo sapiens
[15] = test system: HUVEC; experiment: Inhibition of cell adhesion in HUVEC at 30 uM after 3 hrs at 37 degC; assay type: functional; details: Homo sapiens
[16] = test system: Candida albicans; experiment: Antifungal activity against Candida albicans MTCC 183; assay type: functional
[17] = test system: Staphylococcus aureus; experiment: Antibacterial activity against Staphylococcus aureus MTCC 96; assay type: functional
[18] = test system: Bacillus cereus; experiment: Antibacterial activity against Bacillus cereus MTCC 430; assay type: functional
[19] = test system: Bacillus cereus; experiment: Antibacterial activity against Bacillus cereus MTCC 430 assessed as zone of inhibition; assay type: functional
[20] = test system: Staphylococcus aureus; experiment: Antibacterial activity against Staphylococcus aureus MTCC 96 assessed as zone of inhibition; assay type: functional
[21] = test system: Klebsiella pneumoniae; experiment: Antibacterial activity against Klebsiella pneumoniae MTCC 109; assay type: functional
[22] = test system: Pseudomonas aeruginosa; experiment: Antibacterial activity against Pseudomonas aeruginosa MTCC 741; assay type: functional
[23] = test system: Klebsiella pneumoniae; experiment: Antibacterial activity against Klebsiella pneumoniae MTCC 109 assessed as zone of inhibition; assay type: functional
[24] = test system: Pseudomonas aeruginosa; experiment: Antibacterial activity against Pseudomonas aeruginosa MTCC 741 assessed as zone of inhibition; assay type: functional
[25] = Antiproliferative activity against human breast cancer cells; assay type: functional, cell-based; details: Cancer cell lines
[26] = Antiproliferative activity against human lung cancer cells; assay type: functional, cell-based; details: Cancer cell lines
[27] = Antiproliferative activity against human colon cancer cells; assay type: functional, cell-based; details: Cancer cell lines
[28] = Cytotoxicity against human PC3 cells assessed as inhibition of cell growth; assay type: functional, cell-based; details: PC-3
[29] = test system: Mycobacterium tuberculosis; experiment: Antimycobacterial activity against Mycobacterium tuberculosis H37Rv; assay type: functional
[30] = test system: Escherichia coli; experiment: Antibacterial activity against Escherichia coli MTCC 739; assay type: functional
[31] = test system: Saccharomyces cerevisiae; experiment: Antifungal activity against Saccharomyces cerevisiae; assay type: functional
[32] = molecular target: Cathepsin B (Homo sapiens) (UniProt P07858); experiment: Inhibition of Cathepsin B (unknown origin) at 1 x 10^-4 M
[33] = molecular target: Cathepsin B (Homo sapiens) (UniProt P07858); experiment: Inhibition of Cathepsin B (unknown origin) at 0.1 x 10^-4 M
[34] = molecular target: T1, Pro-cathepsin H (Homo sapiens); experiment: Inhibition of Cathepsin H (unknown origin) at 1 x 10^-4 M

Sequence of Epidermal growth factor receptor (P00533 whole entry): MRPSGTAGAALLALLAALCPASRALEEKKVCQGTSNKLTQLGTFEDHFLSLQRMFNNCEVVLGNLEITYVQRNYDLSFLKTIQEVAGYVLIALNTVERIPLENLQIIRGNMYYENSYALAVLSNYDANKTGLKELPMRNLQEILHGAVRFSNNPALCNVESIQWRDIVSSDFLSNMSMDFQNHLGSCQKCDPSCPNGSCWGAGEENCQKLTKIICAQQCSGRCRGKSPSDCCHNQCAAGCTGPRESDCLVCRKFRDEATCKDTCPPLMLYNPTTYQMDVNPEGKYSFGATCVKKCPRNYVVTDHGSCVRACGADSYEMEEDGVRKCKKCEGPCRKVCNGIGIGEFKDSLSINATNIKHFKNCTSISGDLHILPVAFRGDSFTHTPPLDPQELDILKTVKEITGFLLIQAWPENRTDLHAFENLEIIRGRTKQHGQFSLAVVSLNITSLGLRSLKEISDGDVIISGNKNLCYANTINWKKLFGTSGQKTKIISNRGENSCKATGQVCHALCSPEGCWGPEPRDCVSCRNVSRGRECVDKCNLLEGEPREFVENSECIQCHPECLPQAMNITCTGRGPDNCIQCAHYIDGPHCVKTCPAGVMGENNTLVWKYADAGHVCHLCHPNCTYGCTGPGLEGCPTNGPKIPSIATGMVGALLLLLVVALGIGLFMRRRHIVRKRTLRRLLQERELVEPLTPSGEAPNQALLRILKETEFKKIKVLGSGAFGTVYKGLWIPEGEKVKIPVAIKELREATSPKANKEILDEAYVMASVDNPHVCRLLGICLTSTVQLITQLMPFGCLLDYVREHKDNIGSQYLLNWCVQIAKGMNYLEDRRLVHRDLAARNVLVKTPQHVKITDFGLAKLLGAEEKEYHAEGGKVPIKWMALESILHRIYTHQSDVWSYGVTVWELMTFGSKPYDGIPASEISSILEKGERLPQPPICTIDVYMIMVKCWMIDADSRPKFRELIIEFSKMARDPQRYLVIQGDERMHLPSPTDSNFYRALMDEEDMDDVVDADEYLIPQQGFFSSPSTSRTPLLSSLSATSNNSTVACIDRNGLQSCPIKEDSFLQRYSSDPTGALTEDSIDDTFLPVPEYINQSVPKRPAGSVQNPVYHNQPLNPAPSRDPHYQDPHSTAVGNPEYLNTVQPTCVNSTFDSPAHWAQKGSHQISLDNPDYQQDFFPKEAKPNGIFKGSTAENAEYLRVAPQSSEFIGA

For `COc1ccc(C(=O)NCC(=O)OCCn2c(=O)c3ccccc3n(C)c2=O)cc1`, the MIC [1] was 4 µg/mL (≈ 9.72 µM).
With `CC1(C)CC(=O)C2=C(C1)N=C1Sc3ccccc3N1C2c1ccc(F)cc1` (centres undefined) the GI50 [2] was 900 nM.
Work on `Cn1c(=O)n(CCOC(=O)CNC(=O)c2ccco2)c(=O)c2ccccc21` yielded an MIC [1] of 4 µg/mL (≈ 10.8 µM).
Molecule `COc1cc2nc(/C=C/c3ccccc3Cl)n(-c3ccc([N+](=O)[O-])cc3)c(=O)c2cc1OC` has an ED50 [3] of 41.3 µmol/kg.
For `COc1cc2nc(/C=C/c3ccccc3Cl)n(-c3ccc(Br)cc3)c(=O)c2cc1OC`, the ED50 [3] was 41.3 µmol/kg.
`CN(C)c1ccc(/C=C2\CCCC3=C2NC(=S)NC3c2ccc(N(C)C)cc2)cc1` (centres undefined) showed an inhibition [4] of 100%.
With `CC1(C)CC(=O)C2=C(C1)N=C1Sc3ccccc3N1C2c1ccc(C(F)(F)F)cc1` (centres undefined) the GI50 [2] was 900 nM.
`Cn1c(=O)n(CCOC(=O)CNC(=O)/C=C/c2ccccc2)c(=O)c2ccccc21` showed an MIC [1] of 4 µg/mL (≈ 9.82 µM) and an MIC [5] of 4 µg/mL (≈ 9.82 µM).
With `COc1cc2nc(/C=C/c3ccccc3Cl)n(-c3ccncc3)c(=O)c2cc1OC` the ED50 [3] was 66.4 µmol/kg.
In the case of `Oc1ccc(/C=N/NC2=NC3=C(CCCC3)C(c3ccccc3)N2)cc1` (centres undefined), the “inhibition zone (IZ)” value [6] is reported as 18 mm and the “inhibition zone (IZ)” value [7] is reported as 17 mm.
With `Cn1c(=O)n(CCOC(=O)CNC(=O)c2ccc([N+](=O)[O-])cc2)c(=O)c2ccccc21` the MIC [5] was 4 µg/mL (≈ 9.38 µM).
Molecule `Clc1cc(Nc2ncnc3ccc(NC4=NC[C@H](COc5ccccc5)O4)cc23)ccc1OCc1nccs1` has an IC50 [8] of 1210 nM.
Molecule `COc1cc2nc(/C=C/c3ccccc3Cl)n(-c3ccccc3[N+](=O)[O-])c(=O)c2cc1OC` has an ED50 [3] of 98.2 µmol/kg.
`S=C1NC2=C(CCC/C2=C\C=C\c2ccccc2)C(/C=C/c2ccccc2)N1` (centres undefined) showed an inhibition [9] of 100%.
With `COc1ccc(/C=C2\CCCc3c2nc(C)nc3-c2ccc(OC)c(OC)c2)cc1OC` the IC50 [10] was 0.1 µM.
`CN(C)CCCNc1nc(-c2ccccc2NC(=O)CCN2CCN(C)CC2)nc2ccccc12` gave an IC50 [11] of 9.3 µM, an IC50 [12] of 9.8 µM and an IC50 [13] of 10.9 µM. It also gave an inhibition at 15 µM [14] of 65.8% and an inhibition at 30 µM [15] of 71.2%.
With `Cc1cccc(Oc2nc(-c3ccc(NC(=O)Nc4ccc(Br)cc4)cc3)nc3ccccc23)c1` the MIC [16] was 12.5 µg/mL (≈ 23.8 µM), the MIC [17] was 6.25 µg/mL (≈ 11.9 µM) and the MIC [18] was 12.5 µg/mL (≈ 23.8 µM). The “inhibition zone (IZ)” value [19] was 26 mm, the “inhibition zone (IZ)” value [20] was 29 mm and the MIC [21] was 12.5 µg/mL (≈ 23.8 µM). The MIC [22] was 25 µg/mL (≈ 47.6 µM), the “inhibition zone (IZ)” value [23] was 27 mm and the “inhibition zone (IZ)” value [24] was 25 mm.
For `COc1cc(/C=C2\CCCc3c2nc(N)nc3-c2cc(OC)c(OC)c(OC)c2)cc(OC)c1OC`, the IC50 [10] was 14 µM.
In the case of `Clc1cc(Nc2ncnc3ccc(NC4=NC[C@@H](COc5ccccc5)O4)cc23)ccc1OCc1nccs1`, the IC50 [8] is reported as 950 nM.
`CC1(C)CC(=O)C2=C(C1)N=C1Sc3ccccc3N1C2c1ccccc1C(F)(F)F` (centres undefined) showed a GI50 [2] of 900 nM.
Work on `O=c1c2ccccc2ncn1/N=C/c1ccc(O)c(O)c1O` yielded an IC50 [25] of 140 nM, an IC50 [26] of 79 nM and an IC50 [27] of 320 nM.
For `COc1ccc(/C=C2\CCCc3c2nc(N)nc3-c2ccc(OC)c(OC)c2)cc1OC`, the IC50 [10] was 14 µM.
With `CC[C@@]1(O)C(=O)OCc2c1cc1n(c2=O)Cc2cc3c(CN(C)C)c(O)ccc3nc2-1` [TOPOTECAN] the IC50 [28] was < 4 µM.
In the case of `Cc1cccc(Oc2nc(-c3ccc(NC(=S)Nc4ccc(Br)cc4)cc3)nc3ccccc23)c1`, the “inhibition (INH)” value [29] is reported as 99% and the MIC ([29]; Mycobacterium tuberculosis, H37Rv) is reported as 12.5 µg/mL (≈ 23.1 µM).
`O=c1c2ccccc2nc(-c2ccc(Cl)cc2)n1Cc1ccccc1` gave an MIC [16] of 26.1 µg/mL (≈ 75.3 µM), an MIC [1] of 24.3 µg/mL (≈ 70.1 µM) and an MIC [17] of 25.6 µg/mL (≈ 73.8 µM). For the same molecule, the MIC [22] was 30.1 µg/mL (≈ 86.8 µM), the MIC [30] was 25.1 µg/mL (≈ 72.4 µM) and the MIC [31] was 18.3 µg/mL (≈ 52.8 µM).
Work on `O=C1NC2=C(CCC/C2=C\C=C\c2ccccc2)C(/C=C/c2ccccc2)N1` (centres undefined) yielded an inhibition [32] of 100% and an inhibition [33] of 50%.
`Cn1c(=O)n(CCOC(=O)CNC(=O)c2ccc(F)cc2)c(=O)c2ccccc21` gave an MIC [5] of 4 µg/mL (≈ 10 µM).
For `C[Se](=O)O` [METHYLSELENINIC ACID], the IC50 [28] was < 8.4 µM.
`CN[C@@H]1[C@H](O[C@H]2[C@H](O[C@H]3[C@H](O)[C@@H](O)[C@H](N=C(N)N)[C@@H](O)[C@@H]3N=C(N)N)O[C@@H](C)[C@]2(O)C=O)O[C@@H](CO)[C@H](O)[C@H]1O` [STREPTOMYCIN] showed an MIC [1] of 32 µg/mL (≈ 55 µM).
`CN(C)c1ccc(/C=C2\CCCC3=C2NC(=O)NC3c2ccc(N(C)C)cc2)cc1` (centres undefined) showed an inhibition [34] of 100%.
`COc1cc(/C=C2\CCCc3c2nc(C)nc3-c2cc(OC)c(OC)c(OC)c2)cc(OC)c1OC` showed an IC50 [10] of 0.5 µM.

From ChEMBL document CHEMBL3396974, “Synthetic approaches, functionalization and therapeutic potential of quinazoline and quinazolinone skeletons: the advances continue” (Eur J Med Chem, 2015)
